# Measured values from patent US12458631B2, “Use of dihydroberberine or its derivatives for anti-glycation” (NANJING NUTRABUILDING BIO-TECH CO., LTD., priority 2022, dated 2025).
# Assays:
# Format in all cases: in vivo, Kunming mice
# GSH-Px = GSH-Px activity in skin of D-galactose-injected mice; settings: 14th week
# Description: (§1) Six-week-old, male, Kunming mice, weighed about 30±2 g, were obtained from Cavens Lab Animal (Changzhou, China) and housed in a controlled room (25±2° C., 60% relative humidity, 12 h light/dark cycle) with free access to water and standard laboratory diet. After an acclimation period (1 week), mice were randomly divided into 3 groups of 9 animals. Choose the mice's back skin as the experimental observation area, use a razor to shave off the back hair of the mice. Apply 5% sodium sulfide solution to the back of the mice to remove the hair. Then all mice were injected subcutaneously with the same volume of D-galactose (1000 mg/kg), once a day for 8 weeks. During the entire process of the experiment, the daily food intake and weight of mice were recorded every day, and the D-galactose injection dose was adjusted following the weight change. The 3 groups of 9 animals were (1) non-supplement group (Con, Group 1); (2) DHB supplement group (DHB, 100 mg/kg, Group 2); (3) DHB supplement group (DHB, 200 mg/kg, Group 3). […] The levels of H2O2, MDA, SOD, CAT, GSH, and GSH-Px in the skin were detected with relative kits as reference. […] Quantitative polymerase chain reaction (QPCR) and western blot methods were used to measure the expression of MMP-1 in the skin.
# MDA = MDA content in skin of D-galactose-injected mice (kit/ELISA); settings: group 3, DHB 200 mg/kg s.c., 14th week
# Description: as §1
# GSH = GSH activity in skin of D-galactose-injected mice; settings: DHB groups (100 and 200 mg/kg s.c.), 14th week
# Description: as §1
# MMP-1 = MMP-1 expression in skin (QPCR and western blot) of D-galactose-injected mice; settings: 14th week
# Description: as §1
# [1] = Fasting blood glucose level by glucometer in D-galactose-injected mice; settings: for blood glucose level decreased compared to the non-supplement group: 14th week
# Description: Six-week-old, male, Kunming mice, weighed about 30±2 g, were obtained from Cavens Lab Animal (Changzhou, China) and housed in a controlled room (25±2° C., 60% relative humidity, 12 h light/dark cycle) with free access to water and standard laboratory diet. After an acclimation period (1 week), mice were randomly divided into 3 groups of 9 animals. Choose the mice's back skin as the experimental observation area, use a razor to shave off the back hair of the mice. Apply 5% sodium sulfide solution to the back of the mice to remove the hair. Then all mice were injected subcutaneously with the same volume of D-galactose (1000 mg/kg), once a day for 8 weeks. During the entire process of the experiment, the daily food intake and weight of mice were recorded every day, and the D-galactose injection dose was adjusted following the weight change. The 3 groups of 9 animals were (1) non-supplement group (Con, Group 1); (2) DHB supplement group (DHB, 100 mg/kg, Group 2); (3) DHB supplement group (DHB, 200 mg/kg, Group 3). Mice in group 2 and group 3 were injected subcutaneously (s.c.) into their back skins with the corresponding concentrations of DHB before each major meal once daily for 6 weeks. When all mice were on fasting, collect approximately 10 μL of blood by the tail nick for 3 times, at the beginning of the trial (0 week), after the D-galactose injection (8th week), and at the end of the trial (14th week). Use the glucometer to measure the glucose level.
# skin collagen fibers = test: Masson staining, quantification of skin collagen fibers in D-galactose-injected mice; settings: 14th week
# Description: Six-week-old, male, Kunming mice, weighed about 30±2 g, were obtained from Cavens Lab Animal (Changzhou, China) and housed in a controlled room (25±2° C., 60% relative humidity, 12 h light/dark cycle) with free access to water and standard laboratory diet. After an acclimation period (1 week), mice were randomly divided into 3 groups of 9 animals. Choose the mice's back skin as the experimental observation area, use a razor to shave off the back hair of the mice. Apply 5% sodium sulfide solution to the back of the mice to remove the hair. Then all mice were injected subcutaneously with the same volume of D-galactose (1000 mg/kg), once a day for 8 weeks. During the entire process of the experiment, the daily food intake and weight of mice were recorded every day, and the D-galactose injection dose was adjusted following the weight change. The 3 groups of 9 animals were (1) non-supplement group (Con, Group 1); (2) DHB supplement group (DHB, 100 mg/kg, Group 2); (3) DHB supplement group (DHB, 200 mg/kg, Group 3). […] To further examine the content of skin collagen fibers, this was determined by Masson's staining. Then quantitation of skin epidermis and dermis, and collagen were calculated based on the results of observation.
# CAT = CAT activity in skin of D-galactose-injected mice; settings: DHB groups (100 and 200 mg/kg s.c.), 14th week
# Description: as §1
# SOD = SOD activity in skin of D-galactose-injected mice; settings: 14th week
# Description: as §1
# [2] = test system: skin epidermis and dermis; test: H&E staining, quantitation of skin epidermis and dermis in D-galactose-injected mice; settings: 14th week
# Description: Six-week-old, male, Kunming mice, weighed about 30±2 g, were obtained from Cavens Lab Animal (Changzhou, China) and housed in a controlled room (25±2° C., 60% relative humidity, 12 h light/dark cycle) with free access to water and standard laboratory diet. After an acclimation period (1 week), mice were randomly divided into 3 groups of 9 animals. Choose the mice's back skin as the experimental observation area, use a razor to shave off the back hair of the mice. Apply 5% sodium sulfide solution to the back of the mice to remove the hair. Then all mice were injected subcutaneously with the same volume of D-galactose (1000 mg/kg), once a day for 8 weeks. During the entire process of the experiment, the daily food intake and weight of mice were recorded every day, and the D-galactose injection dose was adjusted following the weight change. The 3 groups of 9 animals were (1) non-supplement group (Con, Group 1); (2) DHB supplement group (DHB, 100 mg/kg, Group 2); (3) DHB supplement group (DHB, 200 mg/kg, Group 3). Mice in group 2 and group 3 were injected subcutaneously (s.c.) into their back skins with the corresponding concentrations of DHB before each major meal once daily for 6 weeks. All mice were sacrificed following 6 weeks at the end of the experiment. The skin tissue was divided into three parts, the first part was stored at −80° C. until assays were performed, the second part was immediately collected, weighed and homogenized (4° C.; 3500 rpm for 15 min) for biochemical and histological analyses, and the third part was fixed in 10% formalin until further use. Hematoxylin-eosin staining (H&E) and Masson staining were performed on skin samples. Skins were fixed in 10% formalin 48 h at room temperature and paraffin-embedded afterward. With H&E staining, skins were sliced into 4 μm, dehydrated of gradient ethanol, and stained with hematoxylin and eosin. For Masson staining, sliced skins were stained with a Masson kit as the instruction said. H&E staining to observe the skin epidermis and dermis structure change and analyze stained collagen fibers by Image-Pro Plus 6.0 in the perspective of 400 times to detect the percentage of collagen fibers area. To further examine the content of skin collagen fibers, this was determined by Masson's staining. Then quantitation of skin epidermis and dermis, and collagen were calculated based on the results of observation.
# H2O2 = H2O2 content in skin homogenate of D-galactose-injected mice; settings: 14th week
# Description: as §1
# [3] = DHB groups (100 and 200 mg/kg s.c.)
# [4] = DHB supplemented groups (100 and 200 mg/kg s.c.)
structure (smiles),measurement,setting,value
"COc1ccc2c(c1OC)CN1CCc3cc4c(cc3C1=C2)OCO4 [DHB, Dihydroberberine]",GSH-Px activity after DHB supplementation,GSH-Px; [3],significantly improved
same,GASH-Px increase compared to non-supplementation group,"GSH-Px; group 3, DHB 200 mg/kg s.c.",~1.8 times
same,content of MDA lower than in the control group,MDA,63%
same,GSH activity after DHB supplementation,GSH,significantly improved
same,MMP-1 expression reduced compared to non-supplement group,"MMP-1; group 2, DHB 100 mg/kg s.c.",about 23%
same,MMP-1 expression reduced compared to non-supplement group,"MMP-1; group 3, DHB 200 mg/kg s.c.",about 51%
same,blood glucose levels after supplementation,[1]; [3],decreased significantly
same,blood glucose level decreased compared to the non-supplement group,"[1]; group 2, DHB 100 mg/kg s.c. once daily for 6 weeks",about 39%
same,blood glucose level decreased compared to the non-supplement group,"[1]; group 3, DHB 200 mg/kg s.c. once daily for 6 weeks",~44%
same,contents of collagen in the skin tissue compared with the control group,skin collagen fibers; DHB supplement groups (100 and 200 mg/kg s.c.),significantly higher
same,"content of collagen in the skin tissue, higher than control group","skin collagen fibers; higher dose group, DHB 200 mg/kg s.c.",2.2 times
same,CAT activity after DHB supplementation,CAT,significantly improved
same,SOD activity after DHB supplementation,SOD; [3],significantly improved
same,SOD increase compared to non-supplementation group,"SOD; group 3, DHB 200 mg/kg s.c.",about 2.9 times
same,dermal thickness vs control group,[2]; [4],significant thicker
same,epidermal thickness vs control group,[2]; [4],significant thicker
same,prevention or reduction of dermal thickness decrease,"[2]; group 3, DHB 200 mg/kg s.c.",78%
same,prevention or reduction of epidermal thickness decrease,"[2]; group 3, DHB 200 mg/kg s.c.",72%
same,H2O2 content decreased compared to the non-supplement group,"H2O2; group 2, DHB 100 mg/kg s.c.",about 33%
same,H2O2 content decreased compared to the non-supplement group,"H2O2; group 3, DHB 200 mg/kg s.c.",~58%
